# pEC50, pKi: −log10 of the molar value. “Also recorded” adds a separate entry of the source.
# Tests used:
# [1] = target: T1, human PPARβ/δ (Homo sapiens, UniProt Q03181); assay: PPARβ/δ luciferase reporter gene transactivation in transfected HEK-293 cells; type: cell-based; conditions: HEK-293, tk-PPREx3-luc reporter, 18 h, 0.1–30 µM; n.d. = not detected up to 30 µM; read-out: PPARβ/δ activation EC50
# T1 construct: expressed in transfected cells; host or cells: HEK-293
# T1 sequence (Q03181 1-441): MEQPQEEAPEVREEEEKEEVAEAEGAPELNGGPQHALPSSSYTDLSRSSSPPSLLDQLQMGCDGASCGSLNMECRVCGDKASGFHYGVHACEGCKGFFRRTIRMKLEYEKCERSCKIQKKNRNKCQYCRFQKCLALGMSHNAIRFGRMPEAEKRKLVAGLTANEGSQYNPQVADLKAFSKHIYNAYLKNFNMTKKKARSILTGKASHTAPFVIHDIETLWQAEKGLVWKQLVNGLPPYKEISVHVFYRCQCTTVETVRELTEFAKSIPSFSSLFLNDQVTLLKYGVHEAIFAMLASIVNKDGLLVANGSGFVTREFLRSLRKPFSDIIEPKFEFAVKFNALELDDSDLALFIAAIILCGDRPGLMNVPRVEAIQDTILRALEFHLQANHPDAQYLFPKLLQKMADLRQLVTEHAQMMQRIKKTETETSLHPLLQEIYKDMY
# Protocol: (§1) HEK-293 cells (ATCC, USA) were cultured in DMEM with phenol red, supplemented with 100 U/ml benzylpenicillin, 100 µg/ml streptomycin, 2 mM L-glutamine, and 10% FBS. Cells were maintained in 75 cm^2 flasks containing 10 ml medium at 37°C and 5% CO2. The cells were seeded in 10 cm dishes at a density of 6 × 10^6 cells/dish, incubated for 18 h, and transfected by the calcium phosphate precipitation method with 4 µg of the reporter plasmid (tk-PPREx3-luc), 4 µg from the respective PPAR subtype expression plasmid, and 2 µg green fluorescent protein plasmid (pEGFP-N1, Clontech, Mountain View, CA) as internal control. After 6 h, the transfected cells were harvested and re-seeded (5 × 10^4 cells/well) in 96-well plates containing DMEM without phenol red, supplemented with 100 U/ml benzylpenicillin, 100 µg/ml streptomycin, 2 mM L-glutamine, and 5% charcoal-stripped FBS. The cells were further treated with the indicated extracts or compounds or the solvent vehicle and incubated for 18 h. The medium was then discarded and the cells were lysed with a reporter lysis buffer (E3971, Promega, Madison, USA). Luciferase activity of the cell lysates was evaluated using a GeniosPro plate reader (Tecan, Grödig, Austria). The luminescence signals obtained from the luciferase activity measurements were normalized to the EGFP-derived fluorescence, to account for differences in the transfection efficiency or cell number.
# [2] = target: T2, human PPARγ (Homo sapiens, UniProt P37231); assay: PPARγ luciferase reporter gene transactivation in transfected HEK-293 cells; conditions: for PPARγ activation maximal fold activation: HEK-293, 18 h, fold induction above vehicle control (DMSO 0.1%)
# T2 sequence (P37231 1-477 isoform P37231-2): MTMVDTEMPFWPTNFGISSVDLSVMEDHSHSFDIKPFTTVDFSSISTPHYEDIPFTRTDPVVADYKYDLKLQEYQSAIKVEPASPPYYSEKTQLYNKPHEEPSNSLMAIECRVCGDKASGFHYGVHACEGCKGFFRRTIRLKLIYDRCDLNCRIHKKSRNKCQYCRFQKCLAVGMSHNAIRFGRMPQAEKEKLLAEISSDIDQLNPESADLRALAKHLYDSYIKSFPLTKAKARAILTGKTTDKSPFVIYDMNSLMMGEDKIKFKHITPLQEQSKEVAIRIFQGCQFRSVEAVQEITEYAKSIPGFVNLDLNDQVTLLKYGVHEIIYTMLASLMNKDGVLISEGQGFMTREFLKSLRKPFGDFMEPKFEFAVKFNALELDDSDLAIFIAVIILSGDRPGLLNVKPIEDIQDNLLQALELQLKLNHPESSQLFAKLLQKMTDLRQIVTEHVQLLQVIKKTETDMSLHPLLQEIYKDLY
# Protocol: HEK-293 cells (ATCC, USA) were cultured in DMEM with phenol red, supplemented with 100 U/ml benzylpenicillin, 100 µg/ml streptomycin, 2 mM L-glutamine, and 10% FBS. Cells were maintained in 75 cm^2 flasks containing 10 ml medium at 37°C and 5% CO2. The cells were seeded in 10 cm dishes at a density of 6 × 10^6 cells/dish, incubated for 18 h, and transfected by the calcium phosphate precipitation method [31] with 4 µg of the reporter plasmid (tk-PPREx3-luc), 4 µg from the respective PPAR subtype expression plasmid, and 2 µg green fluorescent protein plasmid (pEGFP-N1, Clontech, Mountain View, CA) as internal control. After 6 h, the transfected cells were harvested and re-seeded (5 × 10^4 cells/well) in 96-well plates containing DMEM without phenol red, supplemented with 100 U/ml benzylpenicillin, 100 µg/ml streptomycin, 2 mM L-glutamine, and 5% charcoal-stripped FBS. The cells were further treated with the indicated extracts or compounds or the solvent vehicle and incubated for 18 h. The medium was then discarded and the cells were lysed with a reporter lysis buffer (E3971, Promega, Madison, USA). Luciferase activity of the cell lysates was evaluated using a GeniosPro plate reader (Tecan, Grödig, Austria). The luminescence signals obtained from the luciferase activity measurements were normalized to the EGFP-derived fluorescence, to account for differences in the transfection efficiency or cell number.
# (A) HEK-293 cells were transiently co-transfected with a plasmid encoding full-length human PPARγ, a reporter plasmid containing PPRE coupled to a luciferase reporter and an EGFP plasmid as internal control. […] The data shown are means ± SD of three independent experiments each performed in quadruplet. ***p<0.001, *p<0.05 (compared to the solvent vehicle group; ANOVA/Bonferroni).
# The data points shown are means ± SEM of three independent experiments each performed in quadruplet. (B) Cells were transfected and treated as indicated above. […] (C) The cells were prepared as indicated above and treated for 18 h with different concentrations of falcarindiol, always in the presence of 1 µM pioglitazone. The data shown are means ± SD of three independent experiments each performed in quadruplet.
# [3] = target: T3, human PPARα (Homo sapiens, UniProt Q07869); assay: PPARα luciferase reporter gene transactivation in transfected HEK-293 cells; type: cell-based; conditions: HEK-293, tk-PPREx3-luc reporter, 18 h, 0.1–30 µM; n.d. = not detected up to 30 µM; read-out: PPARα activation EC50
# T3 construct: expressed in transfected cells; host or cells: HEK-293
# T3 sequence (Q07869 1-468): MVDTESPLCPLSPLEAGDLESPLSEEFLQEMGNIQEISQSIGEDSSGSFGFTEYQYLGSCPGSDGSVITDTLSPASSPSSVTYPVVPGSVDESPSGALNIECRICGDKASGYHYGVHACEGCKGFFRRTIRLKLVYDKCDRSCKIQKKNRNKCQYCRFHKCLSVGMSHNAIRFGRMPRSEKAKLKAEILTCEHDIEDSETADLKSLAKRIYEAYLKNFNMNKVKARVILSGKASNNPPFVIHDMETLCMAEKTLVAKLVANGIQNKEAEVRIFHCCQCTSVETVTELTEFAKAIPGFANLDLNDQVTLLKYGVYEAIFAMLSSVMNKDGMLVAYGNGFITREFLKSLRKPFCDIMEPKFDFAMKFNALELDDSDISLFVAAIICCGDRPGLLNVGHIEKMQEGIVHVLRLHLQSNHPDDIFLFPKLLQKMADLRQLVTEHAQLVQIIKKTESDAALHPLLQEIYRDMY
# Protocol: as §1
# [4] = target: T4, human PPARγ ligand-binding domain (LBD) (Homo sapiens, UniProt P37231); assay: LanthaScreen TR-FRET PPARγ competitive binding assay; conditions: purified human PPARγ-LBD, 6 h incubation, Cheng-Prusoff from IC50
# T4 construct: purchased Invitrogen
# T4 sequence (P37231 238-503 limits assumed): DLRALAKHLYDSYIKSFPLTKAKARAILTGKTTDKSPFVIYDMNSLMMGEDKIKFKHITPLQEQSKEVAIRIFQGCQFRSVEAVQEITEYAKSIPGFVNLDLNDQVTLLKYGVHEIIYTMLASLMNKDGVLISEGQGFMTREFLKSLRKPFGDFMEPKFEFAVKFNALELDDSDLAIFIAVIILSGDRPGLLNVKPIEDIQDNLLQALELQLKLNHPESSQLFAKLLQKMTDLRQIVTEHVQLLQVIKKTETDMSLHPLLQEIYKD
# Protocol: The LanthaScreen® time-resolved fluorescence resonance energy transfer (TR-FRET) PPARγ competitive binding assay (Invitrogen, Lofer, Austria) was performed according to the manufacturer’s protocol. The test compounds dissolved in DMSO or the blank solvent vehicle (DMSO) were incubated together with the human PPARγ ligand-binding domain (LBD) tagged with GST, a terbium-labeled anti-GST antibody, and a fluorescently labeled PPAR ligand (Fluormone Pan-PPAR Green, Invitrogen). In this assay, the fluorescently labeled ligand is binding to the human PPARγ LBD, which brings it in close spatial proximity to the terbium-labeled anti-GST antibody. Excitation of the terbium at 340 nm results in energy transfer (FRET) and partial excitation of the fluorescently labeled PPAR ligand, followed by emission at 520 nm. Test-compounds binding to the human PPARγ LBD are competing with the fluorescently labeled ligand and displacing it, resulting in a decrease of the FRET signal. […] All measurements were performed with a GeniosPro plate reader (Tecan, Grödig, Austria).
# One-way analysis of variance (ANOVA) with Bonferroni post hoc test, or two-tailed paired t-test was used to determine statistical significance. […]
# [5] = tested on: 3T3-L1 adipocytes; assay: 2-Deoxy-D-(1H^3)-glucose uptake in differentiated 3T3-L1 adipocytes; type: cell-based; conditions: 10 µM for 48 h, insulin 500 pM, vs vehicle, listed as falcarindiol
# Protocol: Confluent 3T3-L1 preadipocytes (ATCC, USA) were differentiated (day 0) into mature adipocytes for 10 days (2 days in DMEM supplemented with 10% FBS, […], 1 µg/ml insulin and 500 nM dexamethasone followed by 2 days in DMEM/10% FBS/1 µg/ml insulin and 6 days in DMEM/10% FBS), and incubated with the test compounds (10 µM) or 0.1% DMSO as vehicle control for 48 h at 37°C. Before the experiment, cells were incubated for 4 h in DMEM/0.1% BSA followed by 1 h in KRH/BSA buffer (50 mM HEPES, 136 mM NaCl, 23.5 mM KCl, 1.25 mM MgSO4, 1.25 mM CaCl2 and 0.1% BSA). […] The glucose uptake rate was determined by liquid scintillation counting (Perkin Elmer, Waltham, MA, USA) of cell lysates (20 mM HEPES, 1% Igepal CA-630), and normalized to protein content assessed by the Bradford protein assay.
# Figure 4 Assessment of adipogenicity and glucose uptake-enhancing properties of falcarindiol. […] For an estimate of accumulated lipids, and thus for the adipogenic potential of the test compounds, Oil Red O staining and photometric quantification at 550 nm was performed. […] (B) 3T3-L1 mature adipocytes were incubated with falcarindiol (10 µM) or solvent vehicle (0.1% DMSO) for 48 h and 2-deoxy-D-(1H^3)-glucose cellular uptake was determined for 10 min in the presence or absence (basal uptake) of insulin (500 pM). […]
# [6] = tested on: 3T3-L1 preadipocytes; assay: Adipogenicity: 3T3-L1 preadipocyte differentiation, Oil Red O staining; type: cell-based; conditions: 10 µM, with 1 µg/ml insulin, compared with pioglitazone 10 µM; listed as falcarindiol
# Protocol: 3T3-L1 preadipocytes (ATCC, USA) were propagated in DMEM supplemented with 10% calf serum. […]. The medium was renewed every two days until day 8. For an estimate of lipid accumulation, Oil Red O staining was performed. For this, cells were fixed in 10% formaldehyde for 1 h and stained with Oil Red O for 10 min. After washing off excessive dye, bound dye was solubilized with 100% isopropanol and photometrically quantified at 550 nm. For better appreciation of the adipogenic potential of the investigated PPARγ agonists, a subset of preadipocytes was treated according to a common standard differentiation protocol (2 days in DMEM/10% FBS/500 µM IBMX/500 nM dexamethasone and 1 µg/mL insulin (MDI), followed by 2 days in DMEM/10% FBS/1 µg/ml insulin and 6 days in DMEM/10% FBS).
# Figure 4 Assessment of adipogenicity and glucose uptake-enhancing properties of falcarindiol. […]; containing 10% FBS, 500 µM IBMX, 500 nM dexamethasone, and 1 µg/ml insulin) as a positive control. For an estimate of accumulated lipids, and thus for the adipogenic potential of the test compounds, Oil Red O staining and photometric quantification at 550 nm was performed. […] (B) 3T3-L1 mature adipocytes were incubated with falcarindiol (10 µM) or solvent vehicle (0.1% DMSO) for 48 h and 2-deoxy-D-(1H^3)-glucose cellular uptake was determined for 10 min in the presence or absence (basal uptake) of insulin (500 pM). […]
SMILES,pEC50 [1],pEC50 [2],PPARγ activation maximal fold activation [2] [fold],pEC50 [3],pKi [4],"share of the stimulating effect of pioglitazone blocked by co-treatment ([2]; co-treatment with 1 µM pioglitazone, 18 h, maximal block)","stimulating effect upon co-treatment with PPARγ antagonist T0070907 ([2]; falcarindiol 10 µM, T0070907 1 µM)",insulin-mediated glucose uptake [5],"3T3-L1 adipocyte differentiation (lipid accumulation, Oil Red O) [6]"
"C=C[C@@H](O)C#CC#C[C@H](/C=C\CCCCCCC)OC(C)=O [compound 1, 3R,8S,9Z-3-hydroxyheptadeca-1,9-diene-4,6-diyne-8-yl acetate]",< 4.52,5.44,2.36,< 4.52,–,–,–,–,–
"C=C[C@@H](O)C#CC#C[C@@H](O)/C=C\CCCCCCC [compound 2, 3R,8S,9Z-heptadeca-1,9-diene-4,6-diyne-3,8-diol]",< 4.52,5.48,3.26,< 4.52,5.51,70–80%,blocked,significantly enhanced,"induced 3T3-L1 preadipocyte differentiation; also recorded: induced the differentiation to adipocytes as expected, although to a smaller extent than pioglitazone"
"C=C[C@@H](O)C#CC#C[C@@H](O)C1OC1CCCCCCC (stereo partly drawn) [compound 3, 1R,6R-1-(3-heptyloxiran-2-yl)octa-7-ene-2,4-diyne-1,6-diol]",< 4.52,5.69,1.88,< 4.52,–,–,–,–,–
"C=C[C@@H](O)/C=C/C#C[C@@H](O)/C=C\CCCCCCC [compound 4, 3R,4E,8S,9Z-heptadeca-1,4,9-triene-6-yne-3,8-diol]",< 4.52,5.34,2.29,< 4.52,–,–,–,–,–
"CCCCCCC/C=C\CC#CC#CCCCO [compound 5, 9Z-heptadecene-4,6-diyne-1-ol]",< 4.52,4.95,1.92,< 4.52,–,–,–,–,–
"CCCCCCC/C=C\CC#CC#C/C=C\CO [compound 6, 2Z,9Z-heptadecadiene-4,6-diyne-1-ol]",< 4.52,5.38,1.73,< 4.52,–,–,–,–,–
